For seven compounds, GI50 and TGI results are on record in PubChem BioAssay (NCI).

Test systems include HCT-15 colon; HOP-92 NSCLC; KM12 colon; MCF7 breast; PC-3 prostate; SF-295 CNS; SK-MEL-5 melanoma; SK-OV-3 ovarian; U251 CNS; UACC-257 melanoma.
What all share (experiment): NCI tumour cell line growth inhibition, 48 h

Several values for one entry are separate records, joined by “and”; a condition that tells them apart may be missing. Identical values can stand only once.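 Five compound concentrations were applied to cells in 96-well plates for 48 hours; endpoints were derived by simple linear interpolation of the resulting dose-response curve. GI50: concentration for 50% inhibition of growth. TGI: total growth inhibition.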 Where a SMILES comes first, the peptide text is derived from it. [ ]: non-standard residue; d: D form. The star is where a group is joined. ξ: configuration not given here. X3 = COc1ccc(C(N*)c2ccc(OC)cc2)cc1; NMeF = CN[C@@H](Cc1ccccc1)C(=O)O; NMeD = CN[C@@H](CC(=O)O)C(=O)O; NMeV = CN[C@H](C(=O)O)C(C)C; ξNMeV = CNC(C(=O)O)C(C)C; Boc = CC(C)(C)OC(=O)*; ξNMeA = CNC(C)C(=O)O; ξV = CC(C)C(N)C(=O)O

Regarding `COc1ccc(C(NC(=O)C[C@@H](C(=O)N(C)C(C)C(=O)O)N(C)C(=O)[C@@H]2CCCN2C(=O)[C@H](C(C)C)N(C)C(=O)C(C(C)C)N(C)C(=O)[C@H](Cc2ccccc2)N(C)C(=O)C(NC(=O)OC(C)(C)C)C(C)C)c2ccc(OC)cc2)cc1` (some centres not stated) (Boc-[ξV][NMeF][ξNMeV][NMeV]P[NMeD](X3)[ξNMeA]-OH), the GI50 in the experiment on HCT-15 colon was 18.2 µM; in the experiment with HOP-92 NSCLC, 15.8 µM; in the experiment with KM12 colon, 17.5 µM; in the experiment on SK-MEL-5 melanoma, 15.2 µM; in the experiment with SK-OV-3 ovarian, 19.2 µM; with U251 CNS it was 19.4 µM. Besides, the GI50 in the experiment with UACC-257 melanoma is 17.3 µM. The TGI in the experiment on HCT-15 colon is 37.5 µM and 33.3 µM; in the experiment with HOP-92 NSCLC it was 23.8 µM and 29.2 µM; in the experiment on KM12 colon it was 15.2 µM and 34.1 µM; in the experiment on MCF7 breast it was 37.5 µM; with PC-3 prostate, 37.5 µM; with SF-295 CNS, 30.2 µM and 32.8 µM. Further, the TGI is 12.7 µM and 28.5 µM with SK-MEL-5 melanoma; > 37.5 µM and 33.3 µM in the experiment with SK-OV-3 ovarian; 23.6 µM and 35.7 µM in the experiment with U251 CNS; 23 µM and 32.2 µM with UACC-257 melanoma.

As for `COc1ccc(/C=N/NC(=O)c2cccc3cc[nH]c23)cc1O`, the GI50 in the experiment on HCT-15 colon is 0.615 µM; in the experiment with HOP-92 NSCLC, 18.5 µM; in the experiment on KM12 colon, 0.883 µM; in the experiment with MCF7 breast, 0.63 µM; in the experiment with PC-3 prostate, 2.05 µM; in the experiment with SF-295 CNS, 0.736 µM. Besides, the GI50 in the experiment on SK-MEL-5 melanoma was 1.27 µM; in the experiment with SK-OV-3 ovarian, 9.87 µM; in the experiment on U251 CNS, 2.4 µM; with UACC-257 melanoma, over 42.8 µM. The TGI with HCT-15 colon was over 46.1 µM; with HOP-92 NSCLC, over 74.6 µM; in the experiment with KM12 colon it was over 100 µM; in the experiment on MCF7 breast it was over 100 µM; with PC-3 prostate it was over 100 µM; in the experiment on SF-295 CNS, over 24.8 µM. The TGI in the experiment on SK-MEL-5 melanoma is over 80.7 µM; in the experiment with SK-OV-3 ovarian, over 100 µM; in the experiment on U251 CNS, over 100 µM; in the experiment with UACC-257 melanoma, over 100 µM.

With `Cc1nnc(NC(=O)c2nc(S(=O)(=O)Cc3ccc(F)cc3)ncc2Cl)s1`, the GI50 in the experiment with HCT-15 colon was 1.84 µM; in the experiment with HOP-92 NSCLC it was 1.66 µM; in the experiment with KM12 colon it was 18.5 µM; in the experiment on MCF7 breast, 3.29 µM; in the experiment with PC-3 prostate it was 10 µM; in the experiment on SF-295 CNS, 15.9 µM. The GI50 was 17 µM in the experiment with SK-MEL-5 melanoma, 17.9 µM in the experiment on SK-OV-3 ovarian, 4.12 µM with U251 CNS and 2.1 µM with UACC-257 melanoma. Also, the TGI in the experiment on HCT-15 colon turned out to be 3.91 µM; in the experiment on HOP-92 NSCLC, 3.22 µM; with KM12 colon, 37 µM; in the experiment on MCF7 breast, 17.6 µM; with PC-3 prostate, 22.9 µM; in the experiment on SF-295 CNS, 30.7 µM. Moreover, the TGI is 31.4 µM with SK-MEL-5 melanoma, 32 µM with SK-OV-3 ovarian, 15.5 µM in the experiment on U251 CNS and 7.61 µM in the experiment with UACC-257 melanoma.

On to `COc1cccc(C(=O)NC(c2ccc(C)cc2)c2cc(Cl)c3cccnc3c2O)c1` (configuration not stated), for which the GI50 in the experiment with HCT-15 colon is 0.309 µM; in the experiment with HOP-92 NSCLC it was 0.474 µM; with KM12 colon, 0.545 µM; in the experiment with MCF7 breast it was 0.371 µM; in the experiment on PC-3 prostate, 0.423 µM; in the experiment on SF-295 CNS, 0.382 µM. In addition, the GI50 in the experiment with SK-MEL-5 melanoma is 0.318 µM; with SK-OV-3 ovarian it was 0.682 µM; in the experiment on U251 CNS it was 0.333 µM; with UACC-257 melanoma it was 0.653 µM. The TGI with HCT-15 colon is 28.2 µM; in the experiment with HOP-92 NSCLC, 9.33 µM; with KM12 colon, 16.8 µM; in the experiment on MCF7 breast, over 30.4 µM; in the experiment on PC-3 prostate, 16.2 µM; with SF-295 CNS it was 15.3 µM. Besides, the TGI is 1.32 µM in the experiment on SK-MEL-5 melanoma, 11.3 µM in the experiment with SK-OV-3 ovarian, 11.2 µM with U251 CNS and 12.7 µM in the experiment with UACC-257 melanoma.

Take `O=S(=O)(c1ccccc1)N1CCN(S(=O)(=O)c2ccccc2)c2ccccc21`: the TGI with HCT-15 colon, in the experiment with HOP-92 NSCLC, with KM12 colon, in the experiment on MCF7 breast, in the experiment on PC-3 prostate and with SF-295 CNS was over 100 µM in each case. Besides, the TGI in the experiment with SK-MEL-5 melanoma, in the experiment on SK-OV-3 ovarian, in the experiment on U251 CNS and in the experiment with UACC-257 melanoma was over 100 µM each time.

In the case of `N#Cc1c[nH]n2c(N=Nc3ccc(Cl)cc3)c(O)nc12`, the GI50 with HCT-15 colon was 22 µM; with HOP-92 NSCLC, 13.1 µM; with KM12 colon, 29.4 µM; in the experiment with MCF7 breast, 21 µM; in the experiment on PC-3 prostate, 23.1 µM; with SF-295 CNS, 30.1 µM. Also, the GI50 was 20.8 µM with SK-MEL-5 melanoma, 37 µM in the experiment with SK-OV-3 ovarian, 35.6 µM in the experiment with U251 CNS and 20.1 µM in the experiment with UACC-257 melanoma. Further, the TGI is 62.9 µM with HCT-15 colon; 52.2 µM in the experiment on HOP-92 NSCLC; over 100 µM with KM12 colon; over 100 µM with MCF7 breast; over 100 µM in the experiment with PC-3 prostate; over 100 µM in the experiment on SF-295 CNS. Also, the TGI in the experiment on SK-MEL-5 melanoma was 43.7 µM; with SK-OV-3 ovarian it was over 100 µM; in the experiment on U251 CNS, over 100 µM; in the experiment with UACC-257 melanoma it was 57.9 µM.

Take `COc1ccc(CCN=C2NC(=O)/C(=C/c3ccc4ncccc4c3)S2)cc1`: the GI50 was over 25 µM in the experiment with HCT-15 colon; over 11.3 µM in the experiment with HOP-92 NSCLC; over 25 µM in the experiment on KM12 colon; over 25 µM with MCF7 breast; over 25 µM in the experiment on PC-3 prostate; over 25 µM in the experiment with SF-295 CNS. Moreover, the GI50 with SK-MEL-5 melanoma, in the experiment with SK-OV-3 ovarian, with U251 CNS and with UACC-257 melanoma was over 25 µM in each case. Moreover, the TGI with HCT-15 colon, in the experiment on HOP-92 NSCLC, in the experiment with KM12 colon, in the experiment on MCF7 breast, in the experiment with PC-3 prostate and in the experiment with SF-295 CNS was over 25 µM throughout. The TGI in the experiment with SK-MEL-5 melanoma, in the experiment on SK-OV-3 ovarian, with U251 CNS and with UACC-257 melanoma was over 25 µM throughout.
